Laboratory results reported in US11618747B2, “LXR modulators with bicyclic core moiety” (OrsoBio, Inc., priority 2018, dated 2023).

Key:
full length (FL) LXRβ = target: T1, full length (FL) LXRβ (Homo sapiens, UniProt P55055, DUP175-175); experiment: LXR Gal4 reporter transient transfection assay (FL-M2H Gal4β); type: cell-based; settings: HEK293 cells, full length LXRβ; read-out: FL-M2H Gal4β (EC50 range)
T1 construct: the full length (FL) proteins of LXRα (amino acids 1-447); NP005684; NP009052; expressed in transfected cells; host or cells: HEK293
T1 sequence (P55055 with tags, fused parts or gaps DUP175-175): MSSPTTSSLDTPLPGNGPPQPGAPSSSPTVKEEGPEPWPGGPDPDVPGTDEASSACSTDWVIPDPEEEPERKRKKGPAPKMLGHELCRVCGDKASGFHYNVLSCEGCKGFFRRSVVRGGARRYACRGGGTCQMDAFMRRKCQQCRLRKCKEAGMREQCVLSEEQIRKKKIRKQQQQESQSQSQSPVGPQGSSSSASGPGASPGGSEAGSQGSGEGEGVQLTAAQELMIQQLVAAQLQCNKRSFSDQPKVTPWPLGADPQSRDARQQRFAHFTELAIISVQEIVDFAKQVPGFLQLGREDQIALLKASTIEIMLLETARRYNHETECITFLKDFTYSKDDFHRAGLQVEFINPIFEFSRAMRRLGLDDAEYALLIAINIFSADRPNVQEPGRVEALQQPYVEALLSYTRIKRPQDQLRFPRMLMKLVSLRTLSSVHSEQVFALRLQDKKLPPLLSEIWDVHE
Procedure, shortened: (§1)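 Mammalian two-hybrid in HEK293 cells transiently transfected with NFkB-AD-fused FL or LBD LXR plus GAL4-BD-fused SRC1 or NCoR cofactor domains and GAL4-responsive firefly luciferase reporter, Renilla-normalized. Compound added 4 h post-transfection (≤0.2% DMSO), 16 h incubation, luminescence read.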

[1] = target: T2, LXRβ ligand-binding domain (Homo sapiens, UniProt P55055, DUP175-175); experiment: TR-FRETβ activity assay (NCoA3 coactivator peptide recruitment); type: biochemical; settings: TR-FRET, 1 μM 24(S)-25-epoxycholesterol prestimulation; read-out: FRETβ (EC50 range)
T2 construct: amino acids 156-461; NP009052; made in house; host or cells: E. coli
T2 sequence (P55055 with tags, fused parts or gaps DUP175-175 limits assumed): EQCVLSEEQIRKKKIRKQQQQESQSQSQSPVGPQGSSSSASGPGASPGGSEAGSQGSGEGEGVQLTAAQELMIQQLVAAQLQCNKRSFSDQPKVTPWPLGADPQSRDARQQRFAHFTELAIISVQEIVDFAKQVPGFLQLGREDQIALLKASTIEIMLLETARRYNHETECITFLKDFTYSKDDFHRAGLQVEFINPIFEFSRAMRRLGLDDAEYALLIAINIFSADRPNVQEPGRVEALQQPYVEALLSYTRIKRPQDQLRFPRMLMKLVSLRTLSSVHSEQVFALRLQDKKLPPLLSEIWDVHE
Procedure, shortened: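 GST-tagged human LXRβ LBD (aa 156-461, E. coli) at 76 nM with 400 nM biotinylated NCoA3 peptide in Tris/HCl pH 6.8, 240 mM KCl, BSA, 0.002% Triton-X-100, plus 1 μM 24(S)-25-epoxycholesterol as prestimulating agonist. Compounds at 50 μM down to 0.002 μM, 1 h at 4 °C. Coactivator recruitment by TR-FRET (Tb cryptate/XL665, 615/665 nm), triplicates.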

full length (FL) LXRα = target: T3, full length (FL) LXRα (Homo sapiens, UniProt Q13133); experiment: LXR Gal4 reporter transient transfection assay (FL-M2H Gal4α); type: cell-based; settings: HEK293 cells, full length LXRα; read-out: FL-M2H Gal4α (EC50 range)
T3 construct: the full length (FL) proteins of LXRα (amino acids 1-447); NP005684; expressed in transfected cells; host or cells: HEK293
T3 sequence (Q13133 1-447): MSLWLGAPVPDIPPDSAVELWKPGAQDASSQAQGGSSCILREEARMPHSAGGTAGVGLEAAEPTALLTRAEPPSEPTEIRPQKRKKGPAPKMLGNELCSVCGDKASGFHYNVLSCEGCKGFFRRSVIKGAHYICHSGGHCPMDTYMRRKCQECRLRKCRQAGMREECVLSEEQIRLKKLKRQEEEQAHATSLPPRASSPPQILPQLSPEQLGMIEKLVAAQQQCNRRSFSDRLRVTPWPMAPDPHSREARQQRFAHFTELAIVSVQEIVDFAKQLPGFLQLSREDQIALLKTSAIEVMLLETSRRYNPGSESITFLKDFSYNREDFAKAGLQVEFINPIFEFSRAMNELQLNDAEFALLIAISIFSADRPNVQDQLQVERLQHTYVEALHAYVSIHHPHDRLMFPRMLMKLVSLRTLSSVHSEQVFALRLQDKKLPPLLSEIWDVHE
Procedure, shortened: as §1

| SMILES | EC50 (full length (FL) LXRβ) | EC50 [1] | EC50 (full length (FL) LXRα) |
| --- | --- | --- | --- |
| N#Cc1sccc1-c1c(-c2cccc(N3CC(C(=O)O)C3)c2)n(S(=O)(=O)c2ccc(Cl)cc2)c2ccc(F)cc12 [5/7] | < 100 nM | 100 to 1000 nM | 100 to 1000 nM |
| COCc1sccc1-c1c(-c2cccc(N3CC(C(=O)O)C3)c2)n(S(=O)(=O)c2ccc(C)cc2)c2ccc(F)cc12 [3/6] | 100 to 1000 nM | 1000 to 10000 nM | 100 to 1000 nM |
| N#Cc1cc(C(=O)O)ccc1-c1cccc(-c2c(-c3ccccc3C#N)c3cc(F)ccc3n2S(=O)(=O)c2ccc(C(F)F)cc2)c1 [11/30] | < 100 nM | < 100 nM | < 100 nM |
| CC1CCN(S(=O)(=O)n2c(-c3cccc(N4CC(C(=O)O)C4)c3)c(-c3ccsc3C#N)c3cc(F)ccc32)CC1 [3/36] | 100 to 1000 nM | 1000 to 10000 nM | 100 to 1000 nM |
| O=C(O)c1ccc(-c2cccc(-c3c(-c4cn[nH]c4C(F)(F)F)c4cc(F)ccc4n3S(=O)(=O)c3ccc(C(F)F)cc3)c2)c(Cl)c1 [11/25] | < 100 nM | 100 to 1000 nM | 100 to 1000 nM |
| Cc1ccc(S(=O)(=O)n2c(-c3cccc(N4CC(C(=O)O)C4)c3)c(-c3ccsc3C#N)c3sccc32)cc1 [4/3] | < 100 nM | 1000 to 10000 nM | < 100 nM |
| Cc1ccc(S(=O)(=O)n2c(-c3cccc(N4CC(C(=O)NC(C)(C)C(=O)O)C4)c3)c(-c3ccsc3C#N)c3cc(F)ccc32)cc1 [3/52] | 100 to 1000 nM | 100 to 1000 nM | 100 to 1000 nM |
| Cc1ccc(S(=O)(=O)n2c(-c3cccc(-c4cc(C(=O)O)nn4C(C)C)c3)c(-c3ccsc3C#N)c3cc(F)ccc32)cc1 [12/8] | 100 to 1000 nM | 1000 to 10000 nM | 100 to 1000 nM |
| Cc1ccc(S(=O)(=O)n2c(-c3cccc(N4CC(C(=O)O)C4)c3)c(-c3ccsc3C=O)c3cc(F)ccc32)cc1 [3/5] | 100 to 1000 nM | 100 to 1000 nM | 100 to 1000 nM |
| O=C(O)c1ccc(-c2cccc(-c3c(-c4ccccc4C4COC4)c4cc(F)ccc4n3S(=O)(=O)c3ccc(Cl)cc3)c2)c(Cl)c1 [3/56] | < 100 nM | < 100 nM | < 100 nM |
| N#Cc1sccc1-c1c(-c2cccc(-c3ccc(C(=O)O)cc3Cl)c2)n(S(=O)(=O)c2ccc(C(F)F)nc2)c2ccc(F)cc12 [11/57] | < 100 nM | < 100 nM | < 100 nM |
| Cc1ccc(S(=O)(=O)n2c(-c3cccc(-c4ccc(C(=O)O)cc4Cl)c3)c(-c3cccc(C)c3C#N)c3cc(F)ccc32)cc1 [11/2] | < 100 nM | < 100 nM | < 100 nM |
| N#Cc1ccncc1-c1c(-c2cccc(-c3cc(F)c(C(=O)O)cc3Cl)c2)n(S(=O)(=O)c2ccc(C(F)F)cc2)c2ccc(F)cc12 [11/10] | < 100 nM | < 100 nM | < 100 nM |
| N#Cc1sccc1-c1c(-c2cccc(N3CC(C(=O)O)C3)c2)n(S(=O)(=O)c2ccc(C(F)F)cc2)c2ccc(F)cc12 [3/35] | < 100 nM | 100 to 1000 nM | 100 to 1000 nM |
| Cc1ccc(S(=O)(=O)n2c(-c3cccc(C4CC4C(=O)O)c3)c(-c3ccsc3C#N)c3cccnc32)cc1 (stereo not drawn) [4/2] | 100 to 1000 nM | 1000 to 10000 nM | 100 to 1000 nM |
| Cc1ccc(S(=O)(=O)n2c(-c3cccc(-c4cc(C(=O)O)nn4C)c3)c(-c3ccsc3C#N)c3cc(F)ccc32)cc1 [12/7] | 100 to 1000 nM | 100 to 1000 nM | 100 to 1000 nM |
| N#Cc1cccc(C#N)c1-c1c(-c2cccc(-c3ccc(C(=O)O)cc3Cl)c2)n(S(=O)(=O)c2ccc(C(F)F)cc2)c2ccccc12 [11/56] | < 100 nM | < 100 nM | < 100 nM |

| SMILES | EC50 (full length (FL) LXRβ) | EC50 [1] | EC50 (full length (FL) LXRα) |
| --- | --- | --- | --- |
| O=C(O)c1ccc(-c2cccc(-c3c(-c4ccccc4C4(F)CNC4)c4cc(F)ccc4n3S(=O)(=O)c3ccc(C(F)F)cc3)c2)c(Cl)c1 [3/61] | 100 to 1000 nM | 100 to 1000 nM | 100 to 1000 nM |
| Cc1ccc(S(=O)(=O)n2c(-c3cccc(-c4cc(F)c(C(=O)O)cc4Cl)c3)c(-c3ccsc3C#N)c3cc(F)ccc32)cc1 [12/2] | < 100 nM | 100 to 1000 nM | < 100 nM |
| CC1(C)CCN(S(=O)(=O)n2c(-c3cccc(-c4ccc(C(=O)O)cc4)c3)c(-c3ccsc3C#N)c3ccccc32)CC1 [3/66] | 100 to 1000 nM | 1000 to 10000 nM | 100 to 1000 nM |
| Cc1ccc(S(=O)(=O)n2c(-c3cccc(N4CCC(C(=O)O)CC4)c3)c(-c3ccsc3C#N)c3cc(F)ccc32)cc1 [3/38] | < 100 nM | 100 to 1000 nM | < 100 nM |
| CC1CCN(S(=O)(=O)n2c(-c3cccc(-c4ccc(C(=O)O)cc4Cl)c3)c(-c3ccsc3C#N)c3cc(F)ccc32)CC1 [3/21] | < 100 nM | 100 to 1000 nM | < 100 nM |
| Cc1ccc(S(=O)(=O)n2c(-c3cccc(C4(C)CC4C(=O)O)c3)c(-c3ccsc3C#N)c3cc(F)ccc32)cc1 (stereo not drawn) [3/2] | < 100 nM | 1000 to 10000 nM | 100 to 1000 nM |
| Cc1ccc(S(=O)(=O)n2c(-c3cccc(N4[C@@H]5CC[C@H]4C[C@@H](C(=O)O)C5)c3)c(-c3ccsc3C#N)c3cc(F)ccc32)cc1 [3/58] | < 100 nM | 1000 to 10000 nM | < 100 nM |
| O=C(O)c1ccc(-c2cccc(-c3c(-c4cccc5oncc45)c4cc(F)ccc4n3S(=O)(=O)c3ccc(C(F)F)cc3)c2)c(Cl)c1 [3/69] | 100 to 1000 nM | 100 to 1000 nM | 100 to 1000 nM |
| Cc1ccc(S(=O)(=O)n2c(-c3cccc(N4CC(C(=O)O)C4)c3)c(-c3ccsc3C(F)F)c3cc(F)ccc32)cc1 [3/4] | < 100 nM | 100 to 1000 nM | 100 to 1000 nM |
| N#CC1=C(c2c(-c3cccc(-c4ccc(C(=O)O)cc4Cl)c3)n(S(=O)(=O)c3ccc(C(F)F)cc3)c3ccc(F)cc23)CCCC1 [11/42] | 100 to 1000 nM | > 10000 nM | 100 to 1000 nM |
| [2H]c1c([2H])c(S(=O)(=O)n2c(-c3cccc(-c4ccc(C(=O)O)cc4Cl)c3)c(-c3ccsc3C#N)c3cc(F)ccc32)c([2H])c([2H])c1C([2H])([2H])[2H] [3/22] | < 100 nM | < 100 nM | < 100 nM |
| Cc1ccc(S(=O)(=O)n2c(-c3cccc(-c4cc(F)c(CO)c(S(C)(=O)=O)c4)c3)c(-c3ccsc3C#N)c3cc(F)ccc32)cc1 [2/16] | < 100 nM | < 100 nM | < 100 nM |
| Cc1cccc(C)c1-c1c(-c2cccc(-c3ccc(C(=O)O)cc3Cl)c2)n(S(=O)(=O)c2ccc(C(F)F)cc2)c2ccc(F)cc12 [11/14] | < 100 nM | < 100 nM | < 100 nM |
| Cc1ccc(S(=O)(=O)n2c(-c3cccc(N4CC(C(=O)O)C4)c3)c(-c3ccsc3C#N)c3cc(C#N)ccc32)cc1 [3/45] | 100 to 1000 nM | 1000 to 10000 nM | 100 to 1000 nM |
| Cc1ccc(S(=O)(=O)n2c(-c3cccc(N4CC(C(=O)O)C4)c3)c(-c3ccoc3C#N)c3cc(F)ccc32)cc1 [3/26] | < 100 nM | 1000 to 10000 nM | 100 to 1000 nM |
| COc1cc(-c2cccc(-c3c(-c4ccsc4C#N)c4cc(F)ccc4n3S(=O)(=O)c3ccc(C)cc3)c2)c(Cl)cc1C(=O)O [12/4] | < 100 nM | 100 to 1000 nM | < 100 nM |
| O=C(O)c1ccc(-c2cccc(-c3c(-c4cccc5nonc45)c4cc(F)ccc4n3S(=O)(=O)c3ccc(C(F)F)cc3)c2)c(Cl)c1 [11/45] | < 100 nM | < 100 nM | < 100 nM |
